Test results: patent US20110092367A1, “Herbicidal Compositions Comprising 4-amino-3,6-dichloropyridine-2-carboxylic Acid” (BASF SE, priority 2008, published 2011)

Tests used:
Assay type in all cases: in vivo
Papaver rhoeas [1] = experiment: Greenhouse trial, post-emergence: PAPRH; conditions: aminopyralid 10 g ai/ha solo
Experimental: (§1) The test plants have been seeded, separately for each species, in plastic containers in sandy loamy soil containing 5% organic matter.
(§2) For the post emergence treatment, the plants were first grown to the 2 leaf station (GS 12). Here, the herbicidal compositions were suspended or emulsified in water as distribution medium and sprayed using finely distributing nozzels.
(§3) The plants have been cultivated due to there individual requirements at 10-25° C. and 20-35° C. The plants were irrigated due to there necessity. […]
(§4) The evaluation for the damage on undesired weeds caused by the chemical compositions was carried out using a scale from 0 to 100%, compared to the untreated control plants. Here, 0 means no damage and 100 means complete destruction of the plants.
(§5) Calculation of expected activity of binary mixtures was done by using the Colby-Formula according to Example 1.

Stellaria media [2] = experiment: Greenhouse trial, post-emergence: STEME; conditions: post-emergence (Tables 7-9)
Experimental: as §1, §2, §3, §4, §5

Veronica persica = experiment: Field trial Example 1, successive application: damage on VERPE
Source text: (§6) Aminiopyralid was used as commercial aquaeous solution having an active ingredient concentration of 240 g/l (Milestone™). Metazachlor was used as a commercial suspension concentrate having an active ingredient concentration of 500 g/l (Butisan S®).
(§7) The performance of aminopyralid applied as an alone treatment at 15, 30 and 50 g a.i./ha applied as an early post emergence treatment and an post emergence treatment in comparison to two different applications including metazachlor at 500 g a.i./ha as an early post emergence application in succession of aminopyralid as a post emergence application at 15 and 30 g a.i./ha was assessed in an oilseed rape field trials.
(§8) The early post emergence treatment was applied by means of fine distributed nozzles at the growth stage (GS) of the crop BBCH 11-12.
(§9) The post emergence treatment was applied by means of fine distributed nozzles at the growth stage (GS) of the crop BBCH 13-14.
(§10) The test period extended over the autumn and spring season (205 days).
(§11) In the following experiments, the herbicidal activity for the individual herbicide compounds (solo application) and of the herbicidal succession was assessed 4 times:
as §4

Matricaria inodora [3] = experiment: Greenhouse trial, post-emergence: MATIN; conditions: post-emergence (Tables 7-9)
Experimental: as §1, §2, §3, §4, §5

Papaver rhoeas [4] = experiment: Field trial Example 2, combined application: PAPRH
Experimental: as §6, §4
(§12) The value E, which is to be expected if the activity of the individual compounds is just additive, was calculated using the method of S. R. Colby (1967) “Calculating synergistic and antagonistic responses of herbicide combinations”, Weeds 15, p. 22 ff.
(§13) The performance of aminopyralid, applied as an alone treatment at […] and 15 g ai/ha, and the performance of metazachlor, applied as an alone treatment at 375 and 500 g ai/ha, as well as the mixtures of the both compounds have been assessed in winter oilseed rape field trials. The trials have been conducted in Germany at two locations.
(§14) Post emergence treatment was applied by means of fine distributed nozzels at the growth stage (GS/BBCH 11/12).

Matricaria inodora [5] = experiment: Field trial Example 2, combined application: MATIN; conditions: Aminopyralid 7.5 g ai/ha solo
Experimental: as §6, §4, §12, §13, §14

Stellaria media [6] = experiment: Field trial Example 2, combined application: STEME; conditions: Aminopyralid 7.5 g ai/ha solo, 28 DAT
Experimental: as §6, §4, §12, §13, §14

Geranium pusillum = experiment: Field trial Example 1, successive application: damage on GERPU
Source text: as §6, §7, §8, §9, §10, §11, §4

[7] = 15 g ai/ha, treatment A early post emergence, DAT 25/DALT 10
[8] = 15 g ai/ha, treatment A early post emergence, DAT 65/DALT 50
[9] = 15 g ai/ha, treatment A early post emergence, DAT 176/DALT 161
[10] = 15 g ai/ha, treatment B post emergence, DAT 25/DALT 10
[11] = 15 g ai/ha, treatment B post emergence, DAT 65/DALT 50
[12] = 15 g ai/ha, treatment B post emergence, DAT 176/DALT 161
[13] = 30 g ai/ha, treatment A early post emergence, DAT 25/DALT 10

In the case of `Nc1cc(Cl)nc(C(=O)O)c1Cl` [aminopyralid, 4-amino-3,6-dichloropyridine-2-carboxylic acid], the “% activity 28 DAT” value (Papaver rhoeas [1]; post-emergence (Table 10)) is reported as 95%, the “% activity 28 DAT” value (Papaver rhoeas [1]; post-emergence (Tables 7-9)) is reported as 35% and the “% activity 28 DAT” value (Stellaria media [2]; aminopyralid 5 g ai/ha solo) is reported as 35%. For the same compound, the “% activity 28 DAT” value (Stellaria media [2]; aminopyralid 10 g ai/ha solo) was 65%, the “damage on VERPE” value (Veronica persica; [7]) was 0% and the “damage on VERPE” value (Veronica persica; [8]) was 0%. The “damage on VERPE” value (Veronica persica; [9]) was 0%, the “damage on VERPE” value (Veronica persica; [10]) was 0% and the “damage on VERPE” value (Veronica persica; [11]) was 0%. The “damage on VERPE” value (Veronica persica; [12]) was 12%, the “damage on VERPE” value (Veronica persica; [13]) was 23% and the “damage on VERPE” value (Veronica persica; 30 g ai/ha, treatment A early post emergence, DAT 65/DALT 50) was 13%. The “damage on VERPE” value (Veronica persica; 30 g ai/ha, treatment A early post emergence, DAT 176/DALT 161) was 12%, the “damage on VERPE” value (Veronica persica; 30 g ai/ha, treatment B post emergence, DAT 25/DALT 10) was 0% and the “damage on VERPE” value (Veronica persica; 30 g ai/ha, treatment B post emergence, DAT 65/DALT 50) was 0%. For the same compound, the “damage on VERPE” value (Veronica persica; 30 g ai/ha, treatment B post emergence, DAT 176/DALT 161) was 10%, the “damage on VERPE” value (Veronica persica; 50 g ai/ha, treatment A early post emergence, DAT 25/DALT 10) was 73% and the “damage on VERPE” value (Veronica persica; 50 g ai/ha, treatment A early post emergence, DAT 65/DALT 50) was 50%. The “damage on VERPE” value (Veronica persica; 50 g ai/ha, treatment A early post emergence, DAT 176/DALT 161) was 50%, the “damage on VERPE” value (Veronica persica; 50 g ai/ha, treatment B post emergence, DAT 25/DALT 10) was 13% and the “damage on VERPE” value (Veronica persica; 50 g ai/ha, treatment B post emergence, DAT 65/DALT 50) was 20%. The “damage on VERPE” value (Veronica persica; 50 g ai/ha, treatment B post emergence, DAT 176/DALT 161) was 30%, the “damage on VERPE” value (Veronica persica; aminopyralid 15 g ai/ha, treatment A, DAT 205/DALT 190) was 0% and the “damage on VERPE” value (Veronica persica; aminopyralid 15 g ai/ha, treatment B, DAT 205/DALT 190) was 18%. For the same compound, the “damage on VERPE” value (Veronica persica; aminopyralid 30 g ai/ha, treatment A, DAT 205/DALT 190) was 12%, the “damage on VERPE” value (Veronica persica; aminopyralid 30 g ai/ha, treatment B, DAT 205/DALT 190) was 12% and the “damage on VERPE” value (Veronica persica; aminopyralid 50 g ai/ha, treatment A, DAT 205/DALT 190) was 48%. For the same compound, the “damage on VERPE” value (Veronica persica; aminopyralid 50 g ai/ha, treatment B, DAT 205/DALT 190) was 33%, the “% activity 28 DAT” value (Matricaria inodora [3]; aminopyralid 5 g ai/ha solo) was 35% and the “% activity 28 DAT” value (Matricaria inodora [3]; aminopyralid 10 g ai/ha solo) was 80%. The “% activity” value (Papaver rhoeas [4]; Aminopyralid 7.5 g ai/ha solo, 29 DAT) was 94%, the “% activity” value (Papaver rhoeas [4]; Aminopyralid 7.5 g ai/ha solo, 72 DAT) was 88% and the “% activity” value (Papaver rhoeas [4]; Aminopyralid 7.5 g ai/ha solo, 78 DAT) was 95%. The “% activity” value (Papaver rhoeas [4]; Aminopyralid 15 g ai/ha solo, 28 DAT) was 92%, the “% activity” value (Papaver rhoeas [4]; Aminopyralid 15 g ai/ha solo, 72 DAT) was 97% and the “% activity” value (Matricaria inodora [5]; 28 DAT) was 78%. The “% activity” value (Matricaria inodora [5]; 29 DAT) was 87%, the “% activity” value (Stellaria media [6]) was 75% and the “damage on GERPU” value (Geranium pusillum; [7]) was 57%. For the same compound, the “damage on GERPU” value (Geranium pusillum; [8]) was 72%, the “damage on GERPU” value (Geranium pusillum; [9]) was 78% and the “damage on GERPU” value (Geranium pusillum; [10]) was 75%. The “damage on GERPU” value (Geranium pusillum; [11]) was 68%, the “damage on GERPU” value (Geranium pusillum; [12]) was 75% and the “damage on GERPU” value (Geranium pusillum; [13]) was 92%.
